According to the NIST ThermoML archive (doi:10.1016/j.fluid.2007.01.029):
± gives the expanded uncertainty stated by the source.

Settings: Crystal

Compared with `C1CCCCC1` [cyclohexane], `C1CC[C@H]2CCCC[C@H]2C1` [cis-decahydronaphthalene] is lower in Normal melting temperature: 6.48 ± 0.6 °C for the first, -45.08 ± 0.6 °C for the second.

Compared with `c1ccc2ccccc2c1` [naphthalene], `c1ccccc1` [benzene] is lower in Normal melting temperature: 79.99 ± 0.6 °C for the first, 5.44 ± 0.6 °C for the second.

Compound `C1CC[C@H]2CCCC[C@@H]2C1` [trans-decahydronaphthalene] has a Normal melting temperature of -30.44 ± 0.6 °C.
